Experimental data as given in US6913748B2, “Cross-linkers with high reactivity and solubility and their use in the preparation of conjugates for targeted delivery of small molecule drugs” (Immunogen, Inc., priority 2002, dated 2005).

Key:
[1] = SEC analysis of conjugate (monomer, dimer, trimer, higher molecular weight aggregates); assay type: physicochemical; details: N901-DM1 conjugate; conjugation at pH 7.4, 2 hours, 1.7-fold DM1
Method: (§1) The increased efficiency of conjugation using the SSNPP linker is accomplished without compromise in the monomeric character of the conjugate and in the amount of unconjugated (free) drug associated with the antibody conjugate. SEC analysis is used to determine the amount of monomer, dimer, trimer, or higher molecular weight aggregates. The level of unconjugated drug was measured by reverse phase HPLC analysis of the conjugate sample. The percent free drug for either reaction was less than 2%. In addition, shorter conjugation reaction times are possible with SSNPP compared with SPP (5), which may decrease loss of some antibodies that are sensitive to prolonged exposure to organic solvent required in the conjugation reaction. Shorter reaction times should also decrease drug loss due to DM1 dimerization, which is a competing side reaction during conjugation. The resulting increases in yield and reduced side reactions should further contribute to reduced DM1 requirements.

[2] = Unconjugated (free) drug by reverse phase HPLC analysis of the conjugate sample; details: N901-DM1 conjugate, 1.7-fold DM1
Method: as §1

[3] = Solubility of cross-linkers in water / aqueous solutions; assay type: physicochemical
N901 antibody with DM1 = test: Conjugation (disulfide exchange) of linker-modified N901 antibody with DM1; set-up: species or system murine; details: pH 7.4; 1.1-fold molar excess of DM1 per linker; compared with SPP-modified antibody
Method: SPP or SSNPP linker was dissolved in ethanol at a concentration of approximately 10 mM. Antibody was dialyzed into buffer A (50 mM KPi, 50 mM NaCl, 2 mM EDTA, pH 6.5). For the linker reaction, the antibody was at 8 mg/ml, and 7 equivalents of linker were added while stirring in the presence of 5% (v/v) ethanol. The reaction was allowed to proceed at ambient temperature for 90 minutes. Unreacted linker was removed from the antibody by Sephadex G25 gel filtration using a Sephadex G25 column equilibrated with Buffer A at pH 6.5 or 150 mM potassium phosphate buffer containing 100 mM NaCl, pH 7.4 as indicated. For the SPP linker, the extent of modification was assessed by release of pyridine-2-thione using 50 mM DTT and measuring the absorbance at 343 nm as described below (ε343=8080 M^−1 cm^−1 for free pyridine-2-thione). For SSNPP, modification was assessed directly by measuring the absorbance at 325 nm (ε325=10,964 M^−1 cm^−1 for the 4-nitropyridyl-2-dithio group linked to antibody). […] For DML, the extent of drug conjugation to antibody was assessed by measuring A252 and A280 of the conjugate as described below. […]
Calculating Ab and DM1 component concentrations of Ab-DM1. […] The components are quantified using the following algebraic expressions which account for the contribution of each component at each wavelength (CAb is the molar concentration of Ab and CD is the molar concentration of DM1): […]

SEC Analysis Dimer [1] [%]	SEC Analysis HMW [1] [%]	SEC Analysis Monomer [1] [%]	SEC Analysis Trimer [1] [%]	% free drug ([2]; conjugation at pH 6.5, 2 hours) [%]	% free drug ([2]; conjugation at pH 7.4, 2 hours) [%]	solubility in water / aqueous solutions [3]	SMILES	time course of the reaction of DM1 with modified antibody (FIG. 8) (N901 antibody with DM1)
4.9	0.2	93.6	0.4	1.9	1.8		CC(CCC(=O)ON1C(=O)CCC1=O)SSc1ccccn1 (centres unmarked) [SPP, reference compound]	
6.3	0.1	91.9	0.6	0.9	0.8	highly water-soluble	CC(CCC(=O)ON1C(=O)CC(S(=O)(=O)O)C1=O)SSc1ccc([N+](=O)[O-])cn1 (centres unmarked) [SSNPP, N-Sulfosuccinimidyl 4-(5-nitro-2-pyridyldithio)-pentanoate]	considerably faster
